Test results from patent US20230340011A1 (Asteroid Therapeutics, priority 2022, published 2023).
Where a name gives a salt, the structure may show the parent alone.

Key:
SREBP-2 = SREBP-2 (Homo sapiens (Human), UniProt Q12772); test: In vitro assay SREBP-2: PathHunter U2OS SREBP-2 Nuclear Translocation Cell Line, U18666A-stimulated; format: cell-based; settings: PathHunter U2OS SREBP-2 nuclear translocation cells, U18666A 10 μM, overnight (16 hours)
LXRβ = LXRβ (Homo sapiens (Human), UniProt P55055); test: In vitro assay LXRβ: PathHunter NHR CHO cells, LXRβ / Steroid Receptor Co-activator Peptide enzyme fragment complementation; format: cell-based; settings: PathHunter NHR CHO cells, full-length human LXRβ and SRCP, chemiluminescent signal; read-out: LXRβ PPI
Chain of LXRβ (P55055 whole entry, the tested form may be a part): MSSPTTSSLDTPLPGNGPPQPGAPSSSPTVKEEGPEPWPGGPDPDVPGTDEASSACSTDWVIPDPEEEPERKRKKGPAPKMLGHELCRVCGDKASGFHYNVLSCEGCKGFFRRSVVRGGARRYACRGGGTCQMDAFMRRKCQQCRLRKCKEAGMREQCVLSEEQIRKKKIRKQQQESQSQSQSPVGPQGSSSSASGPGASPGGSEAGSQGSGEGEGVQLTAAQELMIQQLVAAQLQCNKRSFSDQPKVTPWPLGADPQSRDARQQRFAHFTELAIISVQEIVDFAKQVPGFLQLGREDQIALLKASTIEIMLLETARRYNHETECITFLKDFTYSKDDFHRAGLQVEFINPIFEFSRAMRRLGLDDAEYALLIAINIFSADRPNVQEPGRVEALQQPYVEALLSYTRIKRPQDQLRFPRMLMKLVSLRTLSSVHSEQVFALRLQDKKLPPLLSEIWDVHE
Summary of the method: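 Co-activator recruitment measured by chemiluminescence after signal generation. The CHO line carries full-length human LXRβ tagged with ProLink and an SRCP–enzyme acceptor fusion in the nucleus; cells sat overnight at 37° C before testing, in charcoal-dextran filtered serum medium with 1% final vehicle.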

For `C[C@H](CCC(=O)N1CCN(C(=O)c2cn[nH]c2)CC1)[C@H]1CC[C@H]2[C@@H]3CC=C4C[C@@H](O)CC[C@]4(C)[C@H]3CC[C@]12C` [Example 310, (R)-1-(4-(1H-pyrazole-4-carbonyl)piperazin-1-yl)-4-((3S,8S,9S,10R,13R,14S,17R)-3-hydroxy-10,13-dimethyl-2,3,4,7,8,9,10,11,12,13,14,15,16,17-tetradecahydro-1H-cyclopenta[a]phenanthren-17-yl)pentan-1-one], the IC50 (SREBP-2) was under 250 nM and the EC50 (LXRβ) was over 10000 nM.
Work on `C[C@H](CCC(=O)N1CCN(c2cnn(C)c2)[C@@H](C)C1)[C@H]1CC[C@H]2[C@@H]3CC=C4C[C@@H](O)CC[C@]4(C)[C@H]3CC[C@]12C` [Example 656, (R)-4-((3S,8S,9S,10R,13R,14S,17R)-3-hydroxy-10,13-dimethyl-2,3,4,7,8,9,10,11,12,13,14,15,16,17-tetradecahydro-1H-cyclopenta[a]phenanthren-17-yl)-1-((S)-3-methyl-4-(1-methyl-1H-pyrazol-4-yl)piperazin-1-yl)pentan-1-one] yielded an IC50 (SREBP-2) of under 250 nM and an EC50 (LXRβ) of over 10000 nM.
`C[C@@H]1CCCN(C(=O)CC[C@@H](C)[C@H]2CC[C@H]3[C@@H]4CC=C5C[C@@H](O)CC[C@]5(C)[C@H]4CC[C@]23C)C1` [Example 111, (R)-4-((3S,8S,9S,10R,13R,14S,17R)-3-hydroxy-10,13-dimethyl-2,3,4,7,8,9,10,11,12,13,14,15,16,17-tetradecahydro-1H-cyclopenta[a]phenanthren-17-yl)-1-((R)-3-methylpiperidin-1-yl) pentan-1-one] gave an IC50 (SREBP-2) of under 250 nM and an EC50 (LXRβ) of 250 to 1000 nM.
`C[C@H](CCc1ccc(F)cn1)[C@H]1CC[C@H]2[C@@H]3CC=C4C[C@@H](O)CC[C@]4(C)[C@H]3CC[C@]12C` [Example 162, (1R,3aS,3bS,7S,9aR,9bS,11aR)-1-[(2R)-4-(5-fluoropyridin-2-yl)butan-2-yl]-9a,11a-dimethyl-1H,2H,3H,3aH,3bH,4H,6H,7H,8H,9H,9aH,9bH,10H,11H,11aH-cyclopenta[a]phenanthren-7-ol] was tested, and the IC50 (SREBP-2) was under 250 nM and the EC50 (LXRβ) was 1000 to 10000 nM.
Compound `COc1cccc(N2CCN(C(=O)CC[C@@H](C)[C@H]3CC[C@H]4[C@@H]5CC=C6C[C@@H](O)CC[C@]6(C)[C@H]5CC[C@]34C)CC2)n1` [Example 659, (R)-4-((3S,8S,9S,10R,13R,14S,17R)-3-hydroxy-10,13-dimethyl-2,3,4,7,8,9,10,11,12,13,14,15,16,17-tetradecahydro-1H-cyclopenta[a]phenanthren-17-yl)-1-(4-(6-methoxypyridin-2-yl)piperazin-1-yl)pentan-1-one] has an IC50 (SREBP-2) of under 250 nM and an EC50 (LXRβ) of over 10000 nM.
Compound `CC[C@@]1(O)CCCN(C(=O)CC[C@@H](C)[C@H]2CC[C@H]3[C@@H]4CC=C5C[C@@H](O)CC[C@]5(C)[C@H]4CC[C@]23C)C1` [Example 106, (4R)-1-(3-ethyl-3-hydroxypiperidin-1-yl)-4-((3S,8S,9S,10R,13R,14S,17R)-3-hydroxy-10,13-dimethyl-2,3,4,7,8,9,10,11,12,13,14,15,16,17-tetradecahydro-1H-cyclopenta[a]phenanthren-17-yl)pentan-1-one] has an IC50 (SREBP-2) of under 250 nM and an EC50 (LXRβ) of 250 to 1000 nM.
For `C[C@H](CCC(=O)N1CC2(C1)CC(C)(O)C2)[C@H]1CC[C@H]2[C@@H]3CC=C4C[C@@H](O)CC[C@]4(C)[C@H]3CC[C@]12C` [Example 101, (R)-4-((3S,8S,9S,10R,13R,14S,17R)-3-hydroxy-10,13-dimethyl-2,3,4,7,8,9,10,11,12,13,14,15,16,17-tetradecahydro-1H-cyclopenta[a]phenanthren-17-yl)-1-(6-hydroxy-6-methyl-2-azaspiro[3.3]heptan-2-yl)pentan-1-one], the IC50 (SREBP-2) was under 250 nM and the EC50 (LXRβ) was over 10000 nM.
In the case of `C[C@H](CCC(=O)N1CCC[C@H](c2ccccc2)C1)[C@H]1CC[C@H]2[C@@H]3CC=C4C[C@@H](O)CC[C@]4(C)[C@H]3CC[C@]12C` [Example 77, (R)-4-((3S,8S,9S,10R,13R,14S,17R)-3-hydroxy-10,13-dimethyl-2,3,4,7,8,9,10,11,12,13,14,15,16,17-tetradecahydro-1H-cyclopenta[a]phenanthren-17-yl)-1-((R)-3-phenylpiperidin-1-yl) pentan-1-one], the IC50 (SREBP-2) is reported as under 250 nM and the EC50 (LXRβ) is reported as 1000 to 10000 nM.
For `CC(=O)N(C)C1CCN(C(=O)CC[C@@H](C)[C@H]2CC[C@H]3[C@@H]4CC=C5C[C@@H](O)CC[C@]5(C)[C@H]4CC[C@]23C)CC1` [Example 319, N-(1-((R)-4-((3S,8S,9S,10R,13R,14S,17R)-3-hydroxy-10,13-dimethyl-2,3,4,7,8,9,10,11,12,13,14,15,16,17-tetradecahydro-1H-cyclopenta[a]phenanthren-17-yl)pentanoyl)piperidin-4-yl)-N-methylacetamide], the IC50 (SREBP-2) was under 250 nM and the EC50 (LXRβ) was over 10000 nM.
`C[C@H](CCC(=O)N1C[C@@H]2C[C@]2(c2ccccc2)C1)[C@H]1CC[C@H]2[C@@H]3CC=C4C[C@@H](O)CC[C@]4(C)[C@H]3CC[C@]12C` [Example 78, (4R)-4-((3S,8S,9S,10R,13R,14S,17R)-3-hydroxy-10,13-dimethyl-2,3,4,7,8,9,10,11,12,13,14,15,16,17-tetradecahydro-1H-cyclopenta[a]phenanthren-17-yl)-1-(1-phenyl-3-azabicyclo[3.1.0]hexan-3-yl)pentan-1-one] showed an IC50 (SREBP-2) of under 250 nM and an EC50 (LXRβ) of 1000 to 10000 nM.
`Cc1noc(N2CCN(C(=O)CC[C@@H](C)[C@H]3CC[C@H]4[C@@H]5CC=C6C[C@@H](O)CC[C@]6(C)[C@H]5CC[C@]34C)CC2)n1` [Example 495, (R)-4-((3S,8S,9S,10R,13R,14S,17R)-3-hydroxy-10,13-dimethyl-2,3,4,7,8,9,10,11,12,13,14,15,16,17-tetradecahydro-1H-cyclopenta[a]phenanthren-17-yl)-1-(4-(3-methyl-1,2,4-oxadiazol-5-yl)piperazin-1-yl)pentan-1-one] showed an IC50 (SREBP-2) of under 250 nM and an EC50 (LXRβ) of over 10000 nM.
Compound `C[C@H](CCC(=O)N1CCC[C@@H]1C)[C@H]1CC[C@H]2[C@@H]3CC=C4C[C@@H](O)CC[C@]4(C)[C@H]3CC[C@]12C` [Example 112, (R)-4-((3S,8S,9S,10R,13R,14S,17R)-3-hydroxy-10,13-dimethyl-2,3,4,7,8,9,10,11,12,13,14,15,16,17-tetradecahydro-1H-cyclopenta[a]phenanthren-17-yl)-1-((S)-2-methylpyrrolidin-1-yl)pentan-1-one] has an IC50 (SREBP-2) of under 250 nM and an EC50 (LXRβ) of 250 to 1000 nM.
In the case of `CC(O)c1cccnc1CC[C@@H](C)[C@H]1CC[C@H]2[C@@H]3CC=C4C[C@@H](O)CC[C@]4(C)[C@H]3CC[C@]12C` (stereo partly drawn) [Example 249, (3S,8S,9S,10R,13R,14S,17R)-17-((2R)-4-(3-(1-hydroxyethyl)pyridin-2-yl)butan-2-yl)-10,13-dimethyl-2,3,4,7,8,9,10,11,12,13,14,15,16,17-tetradecahydro-1H-cyclopenta[a]phenanthren-3-ol], the IC50 (SREBP-2) is reported as under 250 nM and the EC50 (LXRβ) is reported as under 250 nM.
`C[C@H](CCC(=O)N1CCN(C(=O)N2CC[C@@H]2C)CC1)[C@H]1CC[C@H]2[C@@H]3CC=C4C[C@@H](O)CC[C@]4(C)[C@H]3CC[C@]12C` [Example 665, (R)-4-((3S,8S,9S,10R,13R,14S,17R)-3-hydroxy-10,13-dimethyl-2,3,4,7,8,9,10,11,12,13,14,15,16,17-tetradecahydro-1H-cyclopenta[a]phenanthren-17-yl)-1-(4-((S)-2-methylazetidine-1-carbonyl)piperazin-1-yl)pentan-1-one] was tested, and the IC50 (SREBP-2) was under 250 nM and the EC50 (LXRβ) was over 10000 nM.
Compound `CON(C(=O)CC[C@@H](C)[C@H]1CC[C@H]2[C@@H]3CC=C4C[C@@H](O)CC[C@]4(C)[C@H]3CC[C@]12C)C(C)CO` (stereo partly drawn) [Example 66, (4R)-4-((3S,8S,9S,10R,13R,14S,17R)-3-hydroxy-10,13-dimethyl-2,3,4,7,8,9,10,11,12,13,14,15,16,17-tetradecahydro-1H-cyclopenta[a]phenanthren-17-yl)-N-(1-hydroxypropan-2-yl)-N-methoxypentanamide] has an IC50 (SREBP-2) of 250 to 1000 nM and an EC50 (LXRβ) of 250 to 1000 nM.
`C[C@H](CCC(=O)N1CCC(C)(CO)C1)[C@H]1CC[C@H]2[C@@H]3CC=C4C[C@@H](O)CC[C@]4(C)[C@H]3CC[C@]12C` (stereo in doubt) [Example 374, (4R)-4-[(1R,3aS,3bS,7S,9aR,9bS,11aR)-7-hydroxy-9a,11a-dimethyl-1H,2H,3H,3aH,3bH,4H,6H,7H,8H,9H,9aH,9bH,10H,11H,11aH-cyclopenta[a]phenanthren-1-yl]-1-[(3R)-3-(hydroxymethyl)-3-methylpyrrolidin-1-yl]pentan-1-one] was tested, and the IC50 (SREBP-2) was under 250 nM and the EC50 (LXRβ) was 250 to 1000 nM.
Compound `C[C@H](CCC(=O)N(C)OCCN)[C@H]1CC[C@H]2[C@@H]3CC=C4C[C@@H](O)CC[C@]4(C)[C@H]3CC[C@]12C` [Example 28, (R)—N-(2-aminoethoxy)-4-((3S,8S,9S,10R,13R,14S,17R)-3-hydroxy-10,13-dimethyl-2,3,4,7,8,9,10,11,12,13,14,15,16,17-tetradecahydro-1H-cyclopenta[a]phenanthren-17-yl)-N-methylpentanamide hydrochloride] has an IC50 (SREBP-2) of 250 to 1000 nM and an EC50 (LXRβ) of over 10000 nM.
`CC(=N)N1CCN(C(=O)CC[C@@H](C)[C@H]2CC[C@H]3[C@@H]4CC=C5C[C@@H](O)CC[C@]5(C)[C@H]4CC[C@]23C)CC1` [Example 245, (R)-4-((3S,8S,9S,10R,13R,14S,17R)-3-hydroxy-10,13-dimethyl-2,3,4,7,8,9,10,11,12,13,14,15,16,17-tetradecahydro-1H-cyclopenta[a]phenanthren-17-yl)-1-(4-(1-iminoethyl)piperazin-1-yl)pentan-1-one] was tested, and the IC50 (SREBP-2) was 250 to 1000 nM and the EC50 (LXRβ) was over 10000 nM.
